# Target: T1, Syk kinase (Homo sapiens, UniProt P43405)
# T1 construct: purchased
# Assay: Syk kinase inhibition, Caliper LabChip off-chip mobility-shift kinase assay
# Type: biochemical
# Conditions: read-out: Syk Enzyme IC50
# Procedure, shortened: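 Purified Syk pre-incubated 15 min with compound in 100 mM HEPES pH 7.5, 1 mM DTT, 10 mM MgCl2 or MnCl2, 0.002% Brij-35, then 1.5 μM fluorescein peptide and ATP at apparent KM added; 1–1.5 h at room temperature, 4% DMSO, EDTA stop. Microfluidic mobility-shift product/substrate conversion gave % inhibition; IC50 from 12-point series (10–0.00003 μM) by 4-parameter fit.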
row,IC50,SMILES
1,42 nM,CN(C)CCn1ccc2cc(Nc3cc(Cl)ccn3)nc(N[C@H]3CC[C@@H](O)CC3)c2c1=O [compound 388]
2,751 nM,Cn1ccc2cc(Nc3cnccn3)nc(Nc3cccc(S(C)(=O)=O)c3)c2c1=O [compound 390]
3,193 nM,CCn1ccc2cc(Nc3cnc(C)cn3)nc(N[C@H]3CC[C@@H](O)CC3)c2c1=O [compound 392]
4,90 nM,CCn1ccc2cc(Nc3cc(C)c(F)cn3)nc(N[C@H]3CC[C@@H](O)CC3)c2c1=O [compound 393]
5,384 nM,CCn1ccc2cc(Nc3cnc(C)cn3)nc(N[C@@H](C)CO)c2c1=O [compound 394]
6,85 nM,CCn1ccc2cc(Nc3cc(C)c(F)cn3)nc(N[C@@H](C)CO)c2c1=O [compound 395]
7,46 nM,[2H]C([2H])([2H])n1ccc2cc(Nc3cc(C)ccn3)nc(N[C@@H](C)CO)c2c1=O [compound 398]
8,998 nM,Cc1ccnc(Nc2cc3cc[nH]c(=O)c3c(N3CC[C@@H](CO)C3)n2)c1 [compound 399]
9,897 nM,Cc1ccnc(Nc2cc3cc[nH]c(=O)c3c(N3CC[C@H](CO)C3)n2)c1 [compound 400]
10,967 nM,Cc1ccnc(Nc2cc3cc[nH]c(=O)c3c(N3CC[C@@H](O)C3)n2)c1 [compound 401]
11,45.7 nM,[2H]C([2H])([2H])n1ccc2cc(Nc3cnccn3)nc(N[C@@H](C)CO)c2c1=O [compound 402]
12,60.4 nM,[2H]C([2H])([2H])n1ccc2cc(Nc3cc(Cl)ccn3)nc(N[C@@H](C)CO)c2c1=O [compound 403]
13,63.4 nM,Cc1ccnc(Nc2cc3ccn(CCO)c(=O)c3c(Nc3ccc(S(C)(=O)=O)cc3)n2)c1 [compound 404]
14,235 nM,CS(=O)(=O)c1ccc(Nc2nc(Nc3cnccn3)cc3ccn(CCO)c(=O)c23)cc1 [compound 405]
15,120 nM,CCn1ccc2cc(Nc3cc(C)ccn3)nc(NC[C@H]3CC[C@H](O)C3)c2c1=O [compound 410]
16,71 nM,CCn1ccc2cc(Nc3ncccn3)nc(NC[C@H]3CC[C@H](O)C3)c2c1=O [compound 411]
17,224 nM,CCn1ccc2cc(Nc3cc(C)ccn3)nc(NC[C@@H]3CC[C@@H](O)C3)c2c1=O [compound 412]
18,46.2 nM,CCn1ccc2cc(Nc3ncccn3)nc(NC[C@@H]3CC[C@@H](O)C3)c2c1=O [compound 413]
19,287 nM,CCn1ccc2cc(Nc3cc(C)ccn3)nc(NC[C@@H]3CC[C@](C)(O)C3)c2c1=O [compound 414]
20,172 nM,CCn1ccc2cc(Nc3cnccn3)nc(NC[C@@H]3CC[C@](C)(O)C3)c2c1=O [compound 415]
21,176 nM,CCn1ccc2cc(Nc3cc(C)ccn3)nc(NC[C@H]3CC[C@@](C)(O)C3)c2c1=O [compound 416]
22,95.6 nM,CCn1ccc2cc(Nc3cnccn3)nc(NC[C@H]3CC[C@@](C)(O)C3)c2c1=O [compound 417]
23,182 nM,CCn1ccc2cc(Nc3cc(C)ccn3)nc(N[C@@H]3CCC[C@@H]3O)c2c1=O [compound 418]
24,94.4 nM,CCn1ccc2cc(Nc3cnccn3)nc(N[C@@H]3CCC[C@@H]3O)c2c1=O [compound 419]
25,11 nM,CCn1ccc2cc(Nc3cc(C)ccn3)nc(N[C@H]3CCC[C@H]3O)c2c1=O [compound 420]
26,23.6 nM,CCn1ccc2cc(Nc3cnccn3)nc(N[C@H]3CCC[C@H]3O)c2c1=O [compound 421]
27,86.1 nM,CCn1ccc2cc(Nc3cc(C)ccn3)nc(N[C@H]3CCC[C@@H]3O)c2c1=O [compound 422]

row,IC50,SMILES
1,52.4 nM,CCn1ccc2cc(Nc3cnccn3)nc(N[C@H]3CCC[C@@H]3O)c2c1=O [compound 423]
2,47 nM,CCn1ccc2cc(Nc3cc(C)ccn3)nc(N[C@H]3CC[C@@H](O)C3)c2c1=O [compound 424]
3,316 nM,CCn1ccc2cc(Nc3cnccn3)nc(N[C@H]3CC[C@@H](O)C3)c2c1=O [compound 425]
4,70.8 nM,CCn1ccc2cc(Nc3cc(C)ccn3)nc(N[C@@H]3CC[C@H](O)C3)c2c1=O [compound 426]
5,48.6 nM,CCn1ccc2cc(Nc3cnccn3)nc(N[C@@H]3CC[C@H](O)C3)c2c1=O [compound 427]
6,108 nM,Nc1ncc(-c2cc3c(F)c[nH]c(=O)c3c(Nc3ccc(N4CCOCC4)cc3)n2)cn1 [compound 428]
7,55 nM,O=c1[nH]cc(F)c2cc(-c3cncnc3)nc(Nc3ccc(N4CCOCC4)cc3)c12 [compound 429]
8,120 nM,COc1ncc(-c2cc3c(F)c[nH]c(=O)c3c(Nc3ccc(N4CCOCC4)cc3)n2)cn1 [compound 430]
9,623 nM,COc1cncc(-c2cc3c(F)c[nH]c(=O)c3c(Nc3ccc(N4CCOCC4)cc3)n2)n1 [compound 432]
10,51 nM,COc1cncc(-c2cc3cc[nH]c(=O)c3c(Nc3ccc(CCN4CC5CNCC5C4)cc3)n2)n1 (centres unmarked) [compound 433]
11,37 nM,COc1cncc(-c2cc3cc[nH]c(=O)c3c(Nc3ccc(CCN4CCCN(C)CC4)cc3)n2)n1 [compound 434]
12,86 nM,CN1CCCN(CCc2ccc(Nc3nc(-c4cncnc4)cc4cc[nH]c(=O)c34)cc2)CC1 [compound 435]
13,140 nM,COc1ncc(-c2cc3cc[nH]c(=O)c3c(Nc3ccc(CCN4CCCN(C)CC4)cc3)n2)cn1 [compound 436]
14,102 nM,Cc1ccc(-c2cc3cc[nH]c(=O)c3c(Nc3ccc(CCN4CCCN(C)CC4)cc3)n2)cn1 [compound 437]
15,289 nM,CCN1CCN(CCc2ccc(Nc3nc(-c4cncnc4)cc4c(F)c[nH]c(=O)c34)cc2)CC1 [compound 438]
16,474 nM,CCN1CCN(CCc2ccc(Nc3nc(-c4cnc(OC)nc4)cc4c(F)c[nH]c(=O)c34)cc2)CC1 [compound 439]
17,343 nM,CCN1CCN(CCc2ccc(Nc3nc(-c4cncc(OC)n4)cc4c(F)c[nH]c(=O)c34)cc2)CC1 [compound 440]
18,58 nM,CCN1CCN(CCc2ccc(Nc3nc(-c4cnn(C)c4)cc4cc[nH]c(=O)c34)cc2)CC1 [compound 441]
19,107 nM,CCN1CCN(CCc2ccc(Nc3nc(-c4cnn(C)c4)cc4c(F)c[nH]c(=O)c34)cc2)CC1 [compound 442]
20,419 nM,CCN1CCN(CCc2ccc(Nc3nc(-c4ccc(C)nc4)cc4c(F)c[nH]c(=O)c34)cc2)CC1 [compound 443]
21,122 nM,CCN1CCN(CCc2ccc(Nc3nc(-c4cnn(CC(C)C)c4)cc4cc[nH]c(=O)c34)cc2)CC1 [compound 444]
22,300 nM,CCN1CCN(CCc2ccc(Nc3nc(-c4cnn(CC(C)C)c4)cc4c(F)c[nH]c(=O)c34)cc2)CC1 [compound 445]
23,101 nM,COCCNc1nc(-c2cnc(N)nc2)cc2cc[nH]c(=O)c12 [compound 447]
24,125 nM,COC[C@H](C)Nc1nc(-c2cnc(N)nc2)cc2cc[nH]c(=O)c12 [compound 448]
25,384 nM,Nc1ncc(-c2cc3cc[nH]c(=O)c3c(NC[C@@H](O)c3cccc(Cl)c3)n2)cn1 [compound 449]
26,117 nM,Nc1ncc(-c2cc3cc[nH]c(=O)c3c(NCC(F)(F)F)n2)cn1 [compound 450]
27,88 nM,C[C@H](O)CNc1nc(-c2cnc(N)nc2)cc2cc[nH]c(=O)c12 [compound 451]

row,IC50,SMILES
1,140 nM,C[C@@H](O)CNc1nc(-c2cnc(N)nc2)cc2cc[nH]c(=O)c12 [compound 452]
2,162 nM,Nc1ncc(-c2cc3cc[nH]c(=O)c3c(NC3CCC3)n2)cn1 [compound 453]
3,281 nM,CCC(C)(C)Nc1nc(-c2cnc(N)nc2)cc2cc[nH]c(=O)c12 [compound 454]
4,59 nM,CC(C)(C)Nc1nc(-c2cnc(N)nc2)cc2cc[nH]c(=O)c12 [compound 455]
5,21.5 nM,O=c1c2c(NCC(F)(F)F)nc(Nc3cnccn3)cc2ccn1CCO [compound 456]
6,302 nM,CC[C@H](CO)Nc1nc(Nc2cnccn2)cc2ccn(CC)c(=O)c12 [compound 457]
7,11.4 nM,CC1(Nc2nc(Nc3cnccn3)cc3ccn(CCO)c(=O)c23)CCC1 [compound 458]
8,52 nM,CC(C)(C)Nc1nc(Nc2cnccn2)cc2ccn(CCO)c(=O)c12 [compound 459]
9,16 nM,Cn1ccc2cc(Nc3cnccn3)nc(NC3CCC3)c2c1=O [compound 460]
10,100 nM,O=c1[nH]ccc2cc(Nc3cnccn3)nc(Nc3ccc(N4CCOCC4)cc3)c12 [compound 461]
11,30 nM,CC(C)Nc1nc(Nc2cnccn2)cc2cc[nH]c(=O)c12 [compound 462]
12,54 nM,Cn1ccc2cc(Nc3cnccn3)nc(NC(C)(C)C)c2c1=O [compound 463]
13,81 nM,Cn1ccc2cc(Nc3cnccn3)nc(NCC(F)(F)F)c2c1=O [compound 464]
14,147 nM,CCn1ccc2cc(Nc3cnccn3)nc(NC(C)(C)C)c2c1=O [compound 465]
15,120 nM,Cn1ccc2cc(Nc3cnccn3)nc(NC(C)(C)C)c2c1=O [compound 466]
16,49 nM,[2H]C([2H])([2H])n1ccc2cc(Nc3cnccn3)nc(NC3CC3)c2c1=O [compound 467]
17,101 nM,Cn1ccc2cc(Nc3cnccn3)nc(Nc3ccc(C(N)=O)cc3)c2c1=O [compound 468]
18,97 nM,[2H]C([2H])([2H])n1ccc2cc(Nc3cnccn3)nc(NC(C)(C)C)c2c1=O [compound 469]
19,82 nM,C[C@@H](O)CNc1nc(Nc2cnccn2)cc2ccn(C)c(=O)c12 [compound 470]
20,100 nM,CCn1ccc2cc(Nc3cnccn3)nc(NC(C)(C)CO)c2c1=O [compound 471]
21,155 nM,Cn1ccc2cc(Nc3cnccn3)nc(NC(C)(C)CO)c2c1=O [compound 472]
22,114 nM,CC(C)(CO)Nc1nc(Nc2cnccn2)cc2ccn(CCO)c(=O)c12 [compound 473]
23,140 nM,Cn1ccc2cc(Nc3cnccn3)nc(NCCCO)c2c1=O [compound 474]
24,139 nM,Cn1ccc2cc(Nc3cnccn3)nc(NCC3CCCO3)c2c1=O (centres unmarked) [compound 475]
25,350 nM,Cn1ccc2cc(Nc3cnccn3)nc(Nc3ccc(C(=O)N4CCOCC4)cc3)c2c1=O [compound 476]
26,580 nM,Cn1ccc2cc(Nc3cnccn3)nc(Nc3cccc(C(N)=O)c3)c2c1=O [compound 477]

# Reference: patent publication US20110053897A1 (IRM LLC, priority 2009, published 2011)
